{"source": "ChEMBL document CHEMBL6153110", "about": "“Peptide Double-Stapling and Arginine N-Glycosylation Triggered the Development of Therapeutic Antimicrobial Peptides Capable of Killing Drug-Resistant Bacteria in Mice” (J Med Chem, 2025)", "key": {"[1]": {"assay": "Toxicity in mouse skin assessed as abscesses and visual lesions at 40 mg/kg, sc by histological analysis", "assay_type": "organism-based", "conditions": "in vivo"}, "Staphylococcus aureus [2]": {"system": "Staphylococcus aureus", "assay": "In vivo antibacterial activity against methicillin-resistant Staphylococcus aureus ATCC 43300 infected locally in full thickness skin wound mouse model assessed as reduction in bacterial load in skin wound at 4 mg/kg treated with absorbable gelatin sponge measured after 3 days", "assay_type": "functional, organism-based", "conditions": "time 3.0 day"}, "Cell membrane [3]": {"system": "Cell membrane", "assay": "Binding affinity to methicillin-resistant Staphylococcus aureus ATCC 43300 cell membrane treated with FITC labelled peptides at MIC measured after 1.5 hr by CLSM imaging analysis", "assay_type": "subcellular"}, "Staphylococcus aureus [4]": {"system": "Staphylococcus aureus", "assay": "Antimicrobial activity against methicillin-resistant Staphylococcus aureus ATCC 43300 assessed as growth inhibition measured after 8 hrs incubation by standard broth dilution assay", "assay_type": "functional"}, "Klebsiella pneumoniae [5]": {"system": "Klebsiella pneumoniae", "assay": "Antimicrobial activity against Klebsiella pneumoniae ATCC 13883 assessed as growth inhibition measured after 8 hrs incubation by standard broth dilution assay", "assay_type": "functional"}, "Cell membrane [6]": {"system": "Cell membrane", "assay": "Induction of cell membrane damage in Klebsiella pneumoniae ATCC 13883 assessed as significant plasma membrane rupture, cytosolic membrane and outer membrane separation, and cytoplasmic leakage at MIC measured after 1 hr incubation by Transmission electron microscopy", "assay_type": "subcellular"}, "Klebsiella pneumoniae [7]": {"system": "Klebsiella pneumoniae", "assay": "(§1) In vivo antibacterial activity against Klebsiella pneumoniae ATCC 13883 induced bacterial pneumonia mouse model assessed as reduction in bacterial infection induced inflammatory response in lungs by measuring large number of alveoli at 4 mg/kg, injected into trachea after 24 hrs of infection measured after 3 to 7 days by H and E staining based assay", "assay_type": "functional, organism-based"}, "[8]": {"assay": "Hemolytic activity in BALB/c mouse red blood cells assessed as hemolysis incubated for 1 hrs", "assay_type": "toxicity, cell-based, Erythrocyte", "conditions": "read-out: HD50"}, "Klebsiella pneumoniae [9]": {"system": "Klebsiella pneumoniae", "assay": "In vivo antibacterial activity against Klebsiella pneumoniae ATCC 13883 induced bacterial pneumonia mouse model assessed as reduction in bacterial infection induced IL-1beta level in lung tissue at 4 mg/kg, injected into trachea after 24 hrs of infection measured after 3 to 7 days", "assay_type": "functional, organism-based"}, "Staphylococcus aureus [10]": {"system": "Staphylococcus aureus", "assay": "In vivo antibacterial activity against methicillin-resistant Staphylococcus aureus ATCC 43300 infected locally in full thickness skin wound mouse model assessed as reduced skin damage by promoting wound healing at 4 mg/kg treated with absorbable gelatin sponge measured on early healing stage", "assay_type": "functional, organism-based", "conditions": "route id"}, "Cell membrane [11]": {"system": "Cell membrane", "assay": "Induction of cell membrane damage in methicillin-resistant Staphylococcus aureus ATCC 43300 assessed as corrugation, blebbing, breakage, and fragmentation at MIC measured after 1 hr incubation by Scanning electron microscopy", "assay_type": "subcellular"}, "Klebsiella pneumoniae [12]": {"system": "Klebsiella pneumoniae", "assay": "Antibacterial activity against Klebsiella pneumoniae ATCC 13883 assessed as reduction in bacterial count at 4.6 ug/ml in bio-film adjusted BM2 medium", "assay_type": "functional, organism-based", "conditions": "dose 4.6 µg/ml"}, "[13]": {"assay": "Toxicity in mouse assessed as inflammatory infiltration at 40 mg/kg, sc by H and E staining based assay", "assay_type": "organism-based", "conditions": "in vivo"}, "Cell membrane [14]": {"system": "Cell membrane", "assay": "Induction of cell membrane damage in methicillin-resistant Staphylococcus aureus ATCC 43300 assessed as increase in red fluorescence at MIC measured after 1 hr incubation by PI based assay", "assay_type": "subcellular"}, "Klebsiella pneumoniae [15]": {"system": "Klebsiella pneumoniae", "assay": "In vivo antibacterial activity against Klebsiella pneumoniae ATCC 13883 induced bacterial pneumonia mouse model assessed as reduction in bacterial infection induced weight loss at 4 mg/kg, injected into trachea after 24 hrs of infection measured after 3 to 7 days", "assay_type": "functional, organism-based"}, "Streptococcus pneumoniae": {"system": "Streptococcus pneumoniae", "assay": "Antimicrobial activity against Streptococcus pneumoniae ATCC 49619 assessed as growth inhibition measured after 8 hrs incubation by standard broth dilution assay", "assay_type": "functional"}, "Klebsiella pneumoniae [16]": {"system": "Klebsiella pneumoniae", "assay": "as §1, with “at 1” for “at 4”", "assay_type": "functional, organism-based"}, "Klebsiella pneumoniae [17]": {"system": "Klebsiella pneumoniae", "assay": "In vivo antibacterial activity against Klebsiella pneumoniae ATCC 13883 induced bacterial pneumonia mouse model assessed as reduction in bacterial infection induced TNF-alpha mRNA expression in lung tissue at 4 mg/kg, injected into trachea after 24 hrs of infection measured after 3 to 7 days", "assay_type": "functional, organism-based"}, "Staphylococcus aureus [18]": {"system": "Staphylococcus aureus", "assay": "In vivo antibacterial activity against methicillin-resistant Staphylococcus aureus ATCC 43300 infected locally in full thickness skin wound mouse model assessed as reduction in bacterial load in skin wound at 1 mg/kg treated with absorbable gelatin sponge measured after 3 days", "assay_type": "functional, organism-based", "conditions": "time 3.0 day"}, "Cell membrane [19]": {"system": "Cell membrane", "assay": "Induction of cell membrane damage in methicillin-resistant Staphylococcus aureus ATCC 43300 assessed as significant plasma membrane rupture, […], and cytoplasmic leakage at MIC measured after 1 hr incubation by Transmission electron microscopy", "assay_type": "subcellular"}, "Klebsiella pneumoniae [20]": {"system": "Klebsiella pneumoniae", "assay": "In vivo antibacterial activity against Klebsiella pneumoniae ATCC 13883 induced bacterial pneumonia mouse model assessed as reduction in bacterial infection induced IL-1beta mRNA expression in lung tissue at 4 mg/kg, injected into trachea after 24 hrs of infection measured after 3 to 7 days", "assay_type": "functional, organism-based"}, "Klebsiella pneumoniae [21]": {"system": "Klebsiella pneumoniae", "assay": "Antibiofilm activity in Klebsiella pneumoniae ATCC 13883 assessed as reduction in biofilm formation at 4.6 ug/ml measured after 24 hrs by crystal violet staining based assay relative to control", "assay_type": "functional", "parameters": "scale not given: the % may be the effect or the level left", "conditions": "dose 4.6 µg/ml"}, "Staphylococcus aureus [22]": {"system": "Staphylococcus aureus", "assay": "In vivo antibacterial activity against methicillin-resistant Staphylococcus aureus ATCC 43300 infected locally in full thickness skin wound mouse model assessed as reduction in inflammatory cells in wound at 4 mg/kg treated with absorbable gelatin sponge measured after 7 days", "assay_type": "functional, organism-based", "conditions": "time 7.0 day"}, "Cell membrane [23]": {"system": "Cell membrane", "assay": "Induction of cell membrane damage in Klebsiella pneumoniae ATCC 13883 assessed as increase in green fluorescence at MIC measured after 1 hr incubation by SYTO9 confocal microscopy", "assay_type": "subcellular"}, "Klebsiella pneumoniae [24]": {"system": "Klebsiella pneumoniae", "assay": "In vivo antibacterial activity against Klebsiella pneumoniae ATCC 13883 induced bacterial pneumonia mouse model assessed as reduction in bacterial infection induced weight loss at 1 mg/kg, injected into trachea after 24 hrs of infection measured after 3 to 7 days", "assay_type": "functional, organism-based"}, "Staphylococcus aureus [25]": {"system": "Staphylococcus aureus", "assay": "Antibacterial activity against methicillin-resistant Staphylococcus aureus ATCC 43300 assessed as reduction in bacterial count at 4.6 ug/ml in bio-film adjusted BM2 medium", "assay_type": "functional, organism-based", "conditions": "dose 4.6 µg/ml"}, "Staphylococcus aureus [26]": {"system": "Staphylococcus aureus", "assay": "Antibiofilm activity in methicillin-resistant Staphylococcus aureus ATCC 43300 assessed as reduction in biofilm formation at 4.6 ug/ml measured after 24 hrs by crystal violet staining based assay relative to control", "assay_type": "functional", "parameters": "scale not given: the % may be the effect or the level left", "conditions": "dose 4.6 µg/ml"}, "Cell membrane [27]": {"system": "Cell membrane", "assay": "Induction of cell membrane damage in methicillin-resistant Staphylococcus aureus ATCC 43300 assessed as increase in red fluorescence at MIC measured after 1 hr incubation by PI based flow cytometry", "assay_type": "subcellular"}, "Cell membrane [28]": {"system": "Cell membrane", "assay": "Induction of cell membrane damage in Klebsiella pneumoniae ATCC 13883 assessed as increase in red fluorescence at MIC measured after 1 hr incubation by PI based confocal microscopy", "assay_type": "subcellular"}, "Klebsiella pneumoniae [29]": {"system": "Klebsiella pneumoniae", "assay": "In vivo antibacterial activity against Klebsiella pneumoniae ATCC 13883 induced bacterial pneumonia mouse model assessed as reduction in bacterial infection induced TNF-alpha level in lung tissue at 4 mg/kg, injected into trachea after 24 hrs of infection measured after 3 to 7 days", "assay_type": "functional, organism-based"}, "Pseudomonas aeruginosa": {"system": "Pseudomonas aeruginosa", "assay": "Antimicrobial activity against Pseudomonas aeruginosa ATCC 27853 assessed as growth inhibition measured after 8 hrs incubation by standard broth dilution assay", "assay_type": "functional"}, "Cell membrane [30]": {"system": "Cell membrane", "assay": "Induction of cell membrane damage in Klebsiella pneumoniae ATCC 13883 assessed as corrugation, blebbing, breakage, and fragmentation at MIC measured after 1 hr incubation by Scanning electron microscopy", "assay_type": "subcellular"}, "Staphylococcus aureus [31]": {"system": "Staphylococcus aureus", "assay": "In vivo antibacterial activity against methicillin-resistant Staphylococcus aureus ATCC 43300 infected locally in full thickness skin wound mouse model assessed as clean and less exudate at 1 mg/kg treated with absorbable gelatin sponge measured on early healing stage", "assay_type": "functional, organism-based", "conditions": "route id"}}, "note": "Active and inactive are the calls of the source. The rule behind the calls is not given here. Positions of bridges follow the written chain, without caps; N, C: chain ends. Non-standard residues stand in square brackets, D forms with d. Residues, ends and D or L forms follow the SMILES beside them. Arg(Nω-βLac) = N=C(NCCC[C@H](N)C(=O)O)N[C@@H]1O[C@H](CO)[C@@H](O[C@@H]2O[C@H](CO)[C@H](O)[C@H](O)[C@H]2O)[C@H](O)[C@H]1O; S5 = C=CCCC[C@](C)(N)C(=O)O", "data": [{"smiles": "CC(=O)N[C@@H](CCCCN)C(=O)N[C@@H](CCCCN)C(=O)N[C@@H](CCCNC(=N)N)C(=O)N[C@H](C(=O)N[C@@H](CCCCN)C(=O)N[C@@H](CCCCN)C(=O)N[C@@H](CCCNC(=N)N)C(=O)N[C@@]1(C)CCC/C=C\\CCC[C@@](C)(C(=O)N[C@@H](CCCCN)C(=O)N[C@@]2(C)CCC/C=C\\CCC[C@@](C)(C(=O)N[C@@H](CC(C)C)C(=O)N[C@@H](CCCCN)C(=O)N[C@@H](CCCCN)C(=O)N3CCC[C@H]3C(=O)N[C@H](C(=O)N[C@@H](CCCNC(=N)N[C@@H]3O[C@H](CO)[C@@H](O[C@@H]4O[C@H](CO)[C@H](O)[C@H](O)[C@H]4O)[C@H](O)[C@H]3O)C(N)=O)C(C)C)NC(=O)[C@H](CCCNC(=N)N)NC(=O)[C@H](Cc3c[nH]c4ccccc34)NC(=O)[C@H](Cc3ccc(O)cc3)NC2=O)NC(=O)[C@H](CC(C)C)NC(=O)[C@H](CCCCN)NC(=O)[C@H](Cc2ccccc2)NC1=O)C(C)C", "note": "(Ac-KKRVKKR[S5]FKL[S5]K[S5]YWR[S5]LKKPV[Arg(Nω-βLac)]-NH2; staple (Z) 8-12, 14-18)", "values": [{"measurement": "Activity", "setting": "[1]", "result": "Non-toxic"}, {"measurement": "Activity", "setting": "Staphylococcus aureus [2]", "result": "Active"}, {"measurement": "Activity", "setting": "Cell membrane [3]", "result": "Active; Compound Exhibited Brighter Red"}, {"measurement": "MIC", "setting": "Staphylococcus aureus [4]", "result": 1.1, "unit": "µg/mL"}, {"measurement": "MIC", "setting": "Klebsiella pneumoniae [5]", "result": 1.1, "unit": "µg/mL"}, {"measurement": "Activity", "setting": "Cell membrane [6]", "result": "Active"}, {"measurement": "Activity", "setting": "Klebsiella pneumoniae [7]", "result": "Active"}, {"measurement": "HC50 at 1 h", "setting": "[8]", "result": 87.6, "unit": "µg/mL"}, {"measurement": "Activity", "setting": "Klebsiella pneumoniae [9]", "result": "Active"}, {"measurement": "Activity", "setting": "Staphylococcus aureus [10]", "result": "Active"}, {"measurement": "Activity", "setting": "Cell membrane [11]", "result": "Active"}, {"measurement": "Activity", "setting": "Klebsiella pneumoniae [12]", "result": "inactive"}, {"measurement": "Activity", "setting": "[13]", "result": "Toxic"}, {"measurement": "Activity", "setting": "Cell membrane [14]", "result": "Active"}, {"measurement": "Activity", "setting": "Klebsiella pneumoniae [15]", "result": "Active"}, {"measurement": "MIC", "setting": "Streptococcus pneumoniae", "result": 1.1, "unit": "µg/mL"}, {"measurement": "Activity", "setting": "Klebsiella pneumoniae [16]", "result": "Active"}, {"measurement": "Activity", "setting": "Klebsiella pneumoniae [17]", "result": "Active"}, {"measurement": "Activity", "setting": "Staphylococcus aureus [18]", "result": "Active"}, {"measurement": "Activity", "setting": "Cell membrane [19]", "result": "Active"}, {"measurement": "Activity", "setting": "Klebsiella pneumoniae [20]", "result": "Active"}, {"measurement": "Activity", "setting": "Klebsiella pneumoniae [21]", "result": 98.18, "unit": "%"}, {"measurement": "Activity", "setting": "Staphylococcus aureus [22]", "result": "Active"}, {"measurement": "Activity", "setting": "Cell membrane [23]", "result": "Active"}, {"measurement": "Activity", "setting": "Klebsiella pneumoniae [24]", "result": "Active"}, {"measurement": "Activity", "setting": "Staphylococcus aureus [25]", "result": "inactive"}, {"measurement": "Activity", "setting": "Staphylococcus aureus [26]", "result": 80.13, "unit": "%"}, {"measurement": "Activity", "setting": "Cell membrane [27]", "result": "Active"}, {"measurement": "Activity", "setting": "Cell membrane [28]", "result": "Active"}, {"measurement": "Activity", "setting": "Klebsiella pneumoniae [29]", "result": "Active"}, {"measurement": "MIC", "setting": "Pseudomonas aeruginosa", "result": 1.1, "unit": "µg/mL"}, {"measurement": "Activity", "setting": "Cell membrane [30]", "result": "Active"}, {"measurement": "Activity", "setting": "Staphylococcus aureus [31]", "result": "Active; Model Group Showed Yellowish Compared With The Wounds Treated With Compound"}]}]}
